Converted amounts (≈) assume the structure as drawn.
Legend:
Salmonella typhimurium [1] = assay: Antibacterial activity against Salmonella enterica serovar Typhimurium harboring G235A mutation in rlpD gene by agar dilution method; type: functional, Salmonella enterica subsp. enterica serovar Typhimurium
[2] = Antibacterial activity against Salmonella enterica subsp. enterica serovar Saintpaul harboring G235A mutation in rlpD gene by agar dilution method; type: functional
[3] = Antibacterial activity against Salmonella enterica serovar blockley harboring G235A mutation in rlpD gene by agar dilution method; type: functional, Salmonella enterica subsp. enterica serovar Blockley
[4] = Antibacterial activity against Salmonella enterica serovar montevideo harboring rlpD GC379T and rlpV G25A mutant gene by agar dilution method; type: functional, Salmonella enterica subsp. enterica serovar Montevideo
Salmonella enterica = assay: Antibacterial activity against quinolone-resistant Salmonella enterica; type: functional
[5] = Antibacterial activity against quinolone-resistant Salmonella enterica serovar stanley s2280 by agar dilution method; type: functional, Salmonella enterica subsp. enterica serovar Stanley
[6] = Antibacterial activity against quinolone-susceptible Salmonella enterica serovar stanley s2868 by agar dilution method; type: functional, Salmonella enterica subsp. enterica serovar Stanley
[7] = Antibacterial activity against quinolone-resistant Salmonella enterica serovar stanley s2086 by agar dilution method; type: functional, Salmonella enterica subsp. enterica serovar Stanley
[8] = Antibacterial activity against quinolone-resistant Salmonella enterica serovar stanley s2085 by agar dilution method; type: functional, Salmonella enterica subsp. enterica serovar Stanley
[9] = Antibacterial activity against quinolone-resistant Salmonella enterica serovar stanley s2236 by agar dilution method; type: functional, Salmonella enterica subsp. enterica serovar Stanley
[10] = Antibacterial activity against quinolone-susceptible Salmonella enterica serovar saintpaul s2829 by agar dilution method; type: functional, Salmonella enterica subsp. enterica serovar Saintpaul
[11] = Antibacterial activity against quinolone-resistant Salmonella enterica serovar stanley s2018 by agar dilution method; type: functional, Salmonella enterica subsp. enterica serovar Stanley
Salmonella typhimurium [12] = assay: Antibacterial activity against quinolone-susceptible Salmonella enterica serovar Typhimurium s3082 by agar dilution method; type: functional, Salmonella enterica subsp. enterica serovar Typhimurium
[13] = Antibacterial activity against quinolone-susceptible Salmonella enterica serovar blockley s2608 by agar dilution method; type: functional, Salmonella enterica subsp. enterica serovar Blockley
[14] = Antibacterial activity against quinolone-susceptible Salmonella enterica serovar bredeney s2477 by agar dilution method; type: functional, Salmonella enterica subsp. enterica serovar Bredeney
[15] = Antibacterial activity against quinolone-resistant Salmonella enterica serovar stanley s2265 by agar dilution method; type: functional, Salmonella enterica subsp. enterica serovar Stanley
Salmonella enteritidis = assay: Antibacterial activity against quinolone-susceptible Salmonella enterica serovar enteritidis s3139 by agar dilution method; type: functional, Salmonella enterica subsp. enterica serovar Enteritidis
[16] = Antibacterial activity against quinolone-susceptible Salmonella enterica serovar rissen s3141 by agar dilution method; type: functional, Salmonella enterica subsp. enterica serovar Rissen
[17] = Antibacterial activity against quinolone-susceptible Salmonella enterica serovar poona s2181 by agar dilution method; type: functional, Salmonella enterica subsp. enterica serovar Poona
Salmonella typhimurium [18] = assay: Antibacterial activity against quinolone-susceptible Salmonella enterica serovar Typhimurium s2137 by agar dilution method; type: functional, Salmonella enterica subsp. enterica serovar Typhimurium
[19] = Antibacterial activity against quinolone-susceptible Salmonella enterica serovar blockley s2439 by agar dilution method; type: functional, Salmonella enterica subsp. enterica serovar Blockley
[20] = Antibacterial activity against quinolone-susceptible Salmonella enterica serovar rissen s2021 by agar dilution method; type: functional, Salmonella enterica subsp. enterica serovar Rissen
[21] = Antibacterial activity against quinolone-susceptible Salmonella enterica serovar newport s2099 by agar dilution method; type: functional, Salmonella enterica subsp. enterica serovar Newport
[22] = Antibacterial activity against quinolone-susceptible Salmonella enterica serovar virchow s2195 by agar dilution method; type: functional, Salmonella enterica subsp. enterica serovar Virchow
Salmonella typhimurium [23] = assay: Antibacterial activity against quinolone-susceptible Salmonella enterica serovar Typhimurium s2389 by agar dilution method; type: functional, Salmonella enterica subsp. enterica serovar Typhimurium
[24] = Antibacterial activity against quinolone-susceptible Salmonella enterica serovar emek s2635 by agar dilution method; type: functional, Salmonella enterica subsp. enterica serovar Emek
[25] = Antibacterial activity against quinolone-susceptible Salmonella enterica serovar blockley s2768 by agar dilution method; type: functional, Salmonella enterica subsp. enterica serovar Blockley
[26] = Antibacterial activity against quinolone-susceptible Salmonella enterica serovar hvittingfoss s2948 by agar dilution method; type: functional, Salmonella enterica subsp. enterica serovar Hvittingfoss
Salmonella typhimurium [27] = assay: Antibacterial activity against quinolone-susceptible Salmonella enterica serovar Typhimurium s2391 by agar dilution method; type: functional, Salmonella enterica subsp. enterica serovar Typhimurium

## CC[C@H]1OC(=O)[C@H](C)C(=O)[C@H](C)[C@@H](O[C@@H]2O[C@H](C)C[C@H](N(C)C)[C@H]2O)[C@](C)(OC)C[C@@H](C)C(=O)[C@H](C)[C@H]2N(CCCCn3cnc(-c4cccnc4)c3)C(=O)O[C@]12C [TELITHROMYCIN]
Salmonella typhimurium [1]
  MIC: > 128 µg/mL
[2]
  MIC: > 128 µg/mL
[3]
  MIC: > 128 µg/mL
[4]
  MIC: 4 µg/mL (≈ 4.93 µM)

## CC[C@H]1OC(=O)[C@H](C)[C@@H](O[C@H]2C[C@@](C)(OC)[C@@H](O)[C@H](C)O2)[C@H](C)[C@@H](O[C@@H]2O[C@H](C)C[C@H](N(C)C)[C@H]2O)[C@](C)(O)C[C@@H](C)C(=O)[C@H](C)[C@@H](O)[C@]1(C)O [ERYTHROMYCIN]
Salmonella typhimurium [1]
  MIC: > 64 µg/mL
[2]
  MIC: > 128 µg/mL
[3]
  MIC: > 128 µg/mL
[4]
  MIC: > 64 µg/mL

## CCn1cc(C(=O)O)c(=O)c2ccc(C)nc21 [NALIDIXIC ACID]
Salmonella enterica
  MIC: ≥ 32 µg/mL
Salmonella typhimurium [1]
  MIC: 16 µg/mL (≈ 68.9 µM)
[2]
  MIC: 16 µg/mL (≈ 68.9 µM)
[3]
  MIC: > 512 µg/mL
[4]
  MIC: 16 µg/mL (≈ 68.9 µM)

## CC[C@H]1OC(=O)[C@H](C)[C@@H](O[C@H]2C[C@@](C)(OC)[C@@H](O)[C@H](C)O2)[C@H](C)[C@@H](O[C@@H]2O[C@H](C)C[C@H](N(C)C)[C@H]2O)[C@](C)(O)C[C@@H](C)CN(C)[C@H](C)[C@@H](O)[C@]1(C)O [AZITHROMYCIN]
[5]
  MIC: 64 µg/mL (≈ 85.4 µM)
Salmonella enterica
  MIC: ≥ 32 µg/mL
Salmonella typhimurium [1]
  MIC: 128 µg/mL (≈ 171 µM)
[6]
  MIC: 128 µg/mL (≈ 171 µM)
[7]
  MIC: 64 µg/mL (≈ 85.4 µM)
[8]
  MIC: 64 µg/mL (≈ 85.4 µM)
[9]
  MIC: 32 µg/mL (≈ 42.7 µM)
[10]
  MIC: 64 µg/mL (≈ 85.4 µM)
[11]
  MIC: 64 µg/mL (≈ 85.4 µM)
Salmonella typhimurium [12]
  MIC: 128 µg/mL (≈ 171 µM)
[13]
  MIC: 64 µg/mL (≈ 85.4 µM)
[14]
  MIC: > 128 µg/mL
[15]
  MIC: 128 µg/mL (≈ 171 µM)
Salmonella enteritidis
  MIC: 128 µg/mL (≈ 171 µM)
[2]
  MIC: 64 µg/mL (≈ 85.4 µM)
[16]
  MIC: 64 µg/mL (≈ 85.4 µM)
[17]
  MIC: 32 µg/mL (≈ 42.7 µM)
Salmonella typhimurium [18]
  MIC: 128 µg/mL (≈ 171 µM)
[19]
  MIC: 64 µg/mL (≈ 85.4 µM)
[3]
  MIC: 64 µg/mL (≈ 85.4 µM)
[20]
  MIC: > 128 µg/mL
[4]
  MIC: 4 µg/mL (≈ 5.34 µM)
[21]
  MIC: 32 µg/mL (≈ 42.7 µM)
[22]
  MIC: > 128 µg/mL
Salmonella typhimurium [23]
  MIC: 128 µg/mL (≈ 171 µM)
[24]
  MIC: 64 µg/mL (≈ 85.4 µM)
[25]
  MIC: 128 µg/mL (≈ 171 µM)
[26]
  MIC: 128 µg/mL (≈ 171 µM)
Salmonella typhimurium [27]
  MIC: 128 µg/mL (≈ 171 µM)

## O=C(O)c1cn(C2CC2)c2cc(N3CCNCC3)c(F)cc2c1=O [CIPROFLOXACIN]
Salmonella enterica
  MIC: ≥ 0.125 µg/mL
Salmonella typhimurium [1]
  MIC: 0.06 µg/mL (≈ 0.181 µM)
[2]
  MIC: 0.03 µg/mL (≈ 0.0905 µM)
[3]
  MIC: 0.25 µg/mL (≈ 0.754 µM)
[4]
  MIC: 0.5 µg/mL (≈ 1.51 µM)
